The record followed here is US20210317092A1 (BAYER PHARMA AKTIENGESELLSCHAFT, priority 2016, published 2021).

Read-outs that look alike come from different tables or passages of the source.

For experiment [1], the target named is T1, native human Bradykinin B1 receptor (Homo sapiens, UniProt P46663).
T1 construct: which express native human Bradykinin B1 receptor after induction with human IL-10; Coriell Institute; host or cells: IMR-90 human foetal lung fibroblasts, cytokine-induced
T1 sequence (P46663 1-353): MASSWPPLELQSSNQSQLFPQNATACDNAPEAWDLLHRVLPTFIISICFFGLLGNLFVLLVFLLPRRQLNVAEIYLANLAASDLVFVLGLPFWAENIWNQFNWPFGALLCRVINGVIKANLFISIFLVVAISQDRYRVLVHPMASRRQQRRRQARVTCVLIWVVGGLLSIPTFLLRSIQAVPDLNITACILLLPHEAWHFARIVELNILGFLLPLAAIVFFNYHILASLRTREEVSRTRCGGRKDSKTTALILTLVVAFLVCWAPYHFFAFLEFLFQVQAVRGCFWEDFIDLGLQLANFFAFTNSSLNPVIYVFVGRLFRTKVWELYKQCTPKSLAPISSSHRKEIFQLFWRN
Put plainly: Calcium flux Assay (FLIPR) with human fibroblasts expressing Bradykinin B1 receptor (hB1 IMR-90). It is filed as cell-based. The conditions noted are these: IMR-90 human fibroblasts expressing native Bradykinin B1 receptor. As for the experimental part: Calcium flux Assay (FLIPR) with human fibroblasts expressing Bradykinin B1 receptor (hB1 IMR-90)
The Calcium flux Assay was carried out utilising IMR-90 human foetal lung fibroblasts (American Type Culture Collection, Rockville, Md.; and Coriell Institute, Camden, N.J.), which express native human Bradykinin B1 receptor after induction with human […].
The fibroblasts were cultured in complete growth media comprised of Dulbecco's modified Eagle's medium (DMEM; Sigma) containing 10% foetal bovine serum, 4 mM L-glutamine, and 1% nonessential amino acids. The cells were maintained in a humidified atmosphere with 5% CO2 at 37° C. and were sub-cultured at a ratio of 1:3, every other day.
For the assay, IMR-90 fibroblasts were harvested using TrypLE Express (GIBCO/Invitrogen) and seeded into 384-well plates (Corning Cellbinding Surface, Cat. 3683) at a density of 15000 cells/well. The following day, cells were treated with 0.35 ng/mL human […] in 10% FBS/MEM for 3h to up-regulate Bradykinin B1 receptor. Induced cells were loaded with fluorescent calcium indicator by incubation with 2.5 μM Fluo-4/AM (Invitrogen) at 37° C., 5% CO2 for 2 h in the presence of 2.5 mM probenecid in 1% FBS/MEM. Extracellular dye was removed by washing with assay buffer (2.5 mM probenecid and 0.1% BSA in 20 mM HEPES/HBSS without bicarbonate or phenol red, pH 7.5). Compound examples were assayed at 8 concentrations in triplicate. After addition of compound examples to the cell plate and incubation for 30 min at 28° C., the addition of Bradykinin B1 agonist Lys-(Des-Arg)-Bradykinin (Bachem, Brackley) at a final concentration of EC90 was carried out on the FLIPR instrument while continuously monitoring Ca^2+-dependent fluorescence at 538 nm. A peptide antagonist Lys-(Des-Arg-Leu)-Bradykinin (Bachem, Brackley) at 20 µM was used to determine the full inhibition as control. IC50 values were determined by the same way described for the FLIPR assay with recombinant cells.
For orientation: A change in cytosolic calcium serves as a functional read-out for many receptors and channels.

Experiment [2] concerns the target T2, human Bradykinin B1 receptor (Homo sapiens, UniProt P46663).
T2 construct: host or cells: CHO-K1
T2 sequence (P46663 1-353): T1 sequence (P46663 1-353)
Put plainly: Calcium flux Assay (FLIPR) with recombinant CHO-K1 cells expressing human Bradykinin B1 receptor, in presence (hB1 IC50) or absence (hB1 free IC50) of 0.1% BSA. It is filed as cell-based.

[3] abbreviates: in absence of 0.1% BSA, read-out: hB1 free IC50.
Where [4] appears, read: in presence of 0.1% BSA, read-out: hB1 IC50.

For orientation: IC50 means the concentration that inhibits the measured activity by half. In the case of `CC(F)(F)c1ccc(-c2ccc(NC(=O)C3(c4ccc(F)c(F)c4)CC3)cc2-c2nnn[nH]2)cn1` [Example 279, N-{4-[6-(1,1-difluoroethyl)py-ridin-3-yl]-3-(1H-tetrazol-5-yl)phenyl}-1-(3,4-difluorophenyl)cy-clopropanecar-boxamide], the results for the 50% inhibitory concentration (IC50) in experiment [1] and in experiment [2] (setting [3]) were 16.3 nM and 23.1 nM, respectively.

On to `CCn1cc(-c2ccc(NC(=O)C3(c4cccc(Cl)c4)CC3)cc2-c2nnn[nH]2)cn1` [Example 216, 1-(3-chlorophenyl)-N-[4-(1-ethyl-1H-pyrazol-4-yl)-3-(1H-tetrazol-5-yl)phenyl] cyclopropane-carboxamide], for which the IC50 in experiment [1] is 38.8 nM; in experiment [2] (setting [3]), 40.6 nM.

On to `O=C(Nc1cc(F)c(-c2ccnc(C(F)(F)F)c2)c(-c2nnn[nH]2)c1)C1(c2ccc(F)c(F)c2)CC1` [Example 244, 1-(3,4-difluorophenyl)-N-{3-fluoro-5-(1H-tetrazol-5-yl)-4-[2-(trifluoromethyl)pyridin-4-yl]phenyl} cyclopropane-carboxamide], for which the figures for the 50% inhibitory concentration (IC50) in experiment [1] and in experiment [2] (setting [3]) were 512 nM and 176 nM, respectively.

As to `CC(F)(F)c1ccc(-c2ccc(NC(=O)C3(c4cccc(Cl)c4)CC3)cc2-c2nnn[nH]2)cn1` [Example 202, 1-(3-chlorophenyl)-N-{4-[6-(1,1-difluoroethyl)pyridin-3-yl]-3-(1H-tetrazol-5-yl)phenyl} cyclopropane-carboxamide], the IC50 in experiment [1] turned out to be 50.9 nM; in experiment [2] (setting [3]), 83.2 nM.

For the compound `O=C(Nc1ccc(-c2ccc(N3CCOCC3)nc2)c(-c2nnn[nH]2)c1)C1(c2cccc(Cl)c2)CC1` [Example 329, 1-(3-chlorophenyl)-N-{4-[6-(morpholin-4-yl)pyridin-3-yl]-3-(1H-tetrazol-5-yl)phenyl}cyclopro-panecarboxa-mide], the IC50 in experiment [1] came out at 70.3 nM; in experiment [2] (setting [3]) it was 85 nM; in experiment [2] (setting [4]) it was 90.5 nM.

As for `CCOc1ccc(-c2ccc(NC(=O)C3(c4ccc(C(F)(F)F)cc4F)CC3)cc2-c2nnn[nH]2)cn1` [Example 72, N-[4-(6-ethoxypyridin-3-yl)-3-(1H-tetrazol-5-yl)phenyl]-1-[2-fluoro-4-(trifluoromethyl)phenyl] cyclopropane-carboxamide], the IC50 in experiment [1] came to 5.72 nM; in experiment [2] (setting [3]), 6.82 nM; in experiment [2] (setting [4]), 15.5 nM.

Turning to `O=C(Nc1ccc(-c2ccc(C(F)(F)F)nc2)c(-c2nnn[nH]2)c1)C1(c2ccc(OC(F)(F)F)cc2F)CC1` [Example 294, 1-[2-fluoro-4-(trifluoromethoxy)phenyl]-N-{3-(1H-tetrazol-5-yl)-4-[6-(trifluoromethyl)pyridin-3-yl]phenyl}cyclopro-panecarboxa-mide], the concentration for half-maximal inhibition (IC50) in experiment [1] came to 6.13 nM; in experiment [2] (setting [3]), 5.96 nM.

On to `CCCc1cccc(C2(C(=O)Nc3ccc(-c4ccc(OCC)nc4)c(-c4nnn[nH]4)c3)CC2)c1` [Example 96, N-[4-(6-ethoxypyridin-3-yl)-3-(1H-tetrazol-5-yl)phenyl]-1-(3-propylphenyl) cyclopropane-carboxamide], for which the concentration for half-maximal inhibition (IC50) stood at 15.3 nM in experiment [1], 5.32 nM in experiment [2] (setting [3]) and 6.58 nM in experiment [2] (setting [4]).

Turning to `CCOc1ccc(-c2ccc(NC(=O)C3(c4cccc(F)c4F)CC3)cc2-c2nnn[nH]2)cn1` [Example 79, 1-(2,3-difluorophenyl)-N-[4-(6-ethoxypyridin-3-yl)-3-(1H-tetrazol-5-yl)phenyl] cyclopropane-carboxamide], the IC50 in experiment [1] is 24.7 nM; in experiment [2] (setting [4]), 25.1 nM.

For `CCOc1ccc(-c2ncc(NC(=O)C3(c4cccc(Cl)c4)CC3)cc2-c2nnn[nH]2)cn1` [Example 218, 1-(3-chlorophenyl)-N-[6′-ethoxy-3-(1H-tetrazol-5-yl)-2,3′-bipyridin-5-yl]cyclopropane carboxamide], the concentration for half-maximal inhibition (IC50) in experiment [1] came out at 31.6 nM; in experiment [2] (setting [3]), 264 nM; in experiment [2] (setting [4]), 75 nM.

As for `COc1cc(-c2ccc(NC(=O)C3(c4ccc(C(F)(F)F)cc4F)CC3)cc2-c2nnn[nH]2)cnc1C(F)(F)F` [Example 147, 1-[2-fluoro-4-(trifluoromethyl)phenyl]-N-{4-[5-methoxy-6-(trifluoromethyl)pyridin-3-yl]-3-(1H-tetrazol-5-yl)phenyl} cyclopropane-carboxamide], the IC50 in experiment [1] came to 36.3 nM; in experiment [2] (setting [3]), 35.3 nM.

As to `Cc1ccc(-c2c(F)cc(NC(=O)C3(c4cccc(Cl)c4)CC3)cc2-c2nnn[nH]2)cn1` [Example 245, 1-(3-chlorophenyl)-N-[3-fluoro-4-(6-methylpyridin-3-yl)-5-(1H-tetrazol-5-yl)phenyl] cyclopropane-carboxamide], the IC50 in experiment [1] amounted to 7.85 nM; in experiment [2] (setting [3]), 8.11 nM.

In the case of `O=C(Nc1ccc(-c2ccc(C(F)F)nc2)c(-c2nnn[nH]2)c1)C1(c2ccc(F)c(F)c2)CC1` [Example 207, N-{4-[6-(difluoromethyl)pyridin-3-yl]-3-(1H-tetrazol-5-yl)phenyl}-1-(3,4-difluorophenyl) cyclopropane-carboxamide], the IC50 stood at 14.9 nM in experiment [1] and 22.4 nM in experiment [2] (setting [3]).

On to `O=C(Nc1ccc(-c2ccc(C(F)(F)F)nc2)c(-c2nnn[nH]2)c1)C1(c2ccc(C(F)(F)F)cc2F)CC1` [Example 191, 1-[2-fluoro-4-(trifluoromethyl)phenyl]-N-{3-(1H-tetrazol-5-yl)-4-[6-(trifluoromethyl)pyridin-3-yl]phenyl} cyclopropane-carboxamide], for which the half-maximal inhibitory concentration (IC50) in experiment [1] was determined as 20.5 nM; in experiment [2] (setting [3]) it was 11.8 nM.

As to `COc1cnccc1-c1ccc(NC(=O)C2(c3cccc(Cl)c3)CC2)cc1-c1nnn[nH]1` [Example 327, 1-(3-chlorophenyl)-N-[4-(3-methoxypyridin-4-yl)-3-(1H-tetrazol-5-yl)phenyl]cyclopro-panecarboxa-mide], the IC50 in experiment [1] was found to be 164 nM; in experiment [2] (setting [3]) it was 71.2 nM; in experiment [2] (setting [4]), 70.9 nM.

On to `CCOc1ncc(-c2ccc(NC(=O)C3(c4cccc(Cl)c4)CC3)cc2-c2nnn[nH]2)cc1F` [Example 163, 1-(3-chlorophenyl)-N-[4-(6-ethoxy-5-fluoropyridin-3-yl)-3-(1H-tetrazol-5-yl)phenyl] cyclopropane-carboxamide], for which the IC50 in experiment [1] was 28.9 nM; in experiment [2] (setting [3]), 14.2 nM; in experiment [2] (setting [4]), 28.1 nM.

As for `CCOc1ccc(-c2ccc(NC(=O)C3(c4ccc(C(F)(F)F)cc4)CC3)cc2-c2nnn[nH]2)cc1OC` [Example 121], the IC50 came to 19.4 nM in experiment [1] and 28.2 nM in experiment [2] (setting [4]).

For `CCOc1ccc(-c2ccc(NC(=O)C3(c4cccc(C(C)(C)C)c4)CC3)cc2-c2nnn[nH]2)cn1` [Example 97, 1-(3-tert-butylphenyl)-N-[4-(6-ethoxypyridin-3-yl)-3-(1H-tetrazol-5-yl)phenyl] cyclopropane-carboxamide], the IC50 in experiment [1] stood at 101 nM; in experiment [2] (setting [4]) it was 138 nM.

For the compound `CO[C@H]1CC[C@H](c2ccc(NC(=O)C3(c4cccc(Cl)c4)CC3)cc2-c2nnn[nH]2)CC1` [Example 190, 1-(3-chlorophenyl)-N-[4-(trans-4-methoxy-cyclohexyl)-3-(1H-tetrazol-5-yl)phenyl] cyclopropane-carboxamide], the half-maximal inhibitory concentration (IC50) in experiment [1] was found to be 340 nM; in experiment [2] (setting [3]), 189 nM; in experiment [2] (setting [4]), 250 nM.
